The source of these data is patent US20170349540A1, “HISTONE DEACETYLASE INHIBITORS” (The General Hospital Corporation, priority 2014, published 2017).

Structures are written as SMILES. A value given as a limit tells only on which side of the number the result lay.

The data set in a line: Intraperitoneal pharmacokinetics and brain distribution assay. The following applies: single i.p. dose 1 mg/kg. The format is in vivo, male Sprague Dawley rats. The procedure: Healthy male Sprague Dawley rats (8-12 weeks old) weighing between 200 to 250 g were procured from Tina Labs, Hyderabad, India. Three rats were housed in each cage. Temperature and humidity were maintained at 22±3° C. and 40-70%, respectively and illumination was controlled to give a sequence of 12 hr light and 12 hr dark cycle. Temperature and humidity were recorded by auto-controlled data logger system. All the animals were provided laboratory rodent diet (Vetcare India Pvt. Ltd, Bengaluru) ad libitum. Reverse osmosis water treated with ultraviolet light was provided ad libitum.
Twenty one male Sprague Dawley rats were intraperitoneally administered with a solution formulation of the compound of Example 2 prepared in 10% DMSO, 10% Tween 80, and 80% normal saline. The blood samples were collected from a set of three rats at each time point in labeled micro centrifuge tube containing K2EDTA solution as anticoagulant. Plasma samples were separated by centrifugation of whole blood and stored at below −70° C. until bioanalysis. After collection of blood samples at each time point animals, were humanely euthanized by CO2 and the brain was collected. Brain samples were homogenized using ice-cold phosphate buffer saline (pH=7.4) and homogenates were stored at below −70° C. until analysis. Total homogenate volume was three times the brain weight. All samples were processed for analysis by protein precipitation using acetonitrile and analyzed with fit-for-purpose LC-MS/MS method (Lower Limits of Quantitation (LLOQ)=2.01 ng/mL in plasma and 1.01 ng/mL in brain). Pharmacokinetic parameters were calculated using the non-compartmental analysis tool of Phoenix WinNonlin® (Version 6.3).
The intraperitoneal solution formulation concentration was 0.1 mg/mL. The weighed quantity (7.02 mg) of (E)-3-(4-((((3r,5r,7r)-adamantan-1-ylmethyl)(methyl)amino)methyl)phenyl)-N-(2-aminophenyl)acrylamide was added in a labeled bottle. DMSO (7.02 mL) was added to dissolve the compound, followed by addition of Tween 80 (7.02 mL) and the solution was mixed by vortexing. Next, normal saline was added (56.16 mL) and the resulting solution was mixed by vortexing. The solution formulation was sonicated for 2 minutes to obtain a clear and transparent solution.
The blood samples were collected from set of three rats at each time point in labeled micro centrifuge tube containing K2EDTA solution as anticoagulant at time points of 0.08, 0.5, 1, 2, 4, 6, 8 & 24 hours. […]
Concentrations of the compound of Example 2 in rat plasma and brain samples were analyzed with fit-for-purpose by LC-MS/MS method. […] Following centrifugation, 100 µL of clear supernatant was transferred a 96-well plate and analyzed using LC-MS/MS. […]

The Tmax is the time at which the peak concentration occurs. Consider `CN(Cc1ccc(/C=C/C(=O)Nc2ccccc2N)cc1)CC12CC3CC(CC(C3)C1)C2` [Example 2, (E)-3-(4-((((3r,5r,7r)-adamantan-1-ylmethyl)(methyl)amino)methyl)phenyl)-N-(2-aminophenyl)acrylamide], for which, for the setting “male, Sprague Dawley, rat, brain/plasma, ip, read-out: Brain-to-plasma exposure ratio”, the Kp was 20.6. Also, under “male, Sprague Dawley, rat, plasma, ip”, the time to peak (Tmax) is 30 min. Moreover, the “brain concentrations quantifiable up to” value (brain (2 animals), LLOQ 1.01 ng/mL) was no more than 24 h. Moreover, the “plasma concentrations quantifiable up to” value (plasma (2 animals), LLOQ 2.01 ng/mL) is on record as “up to 8 h”.
